Holding throughout (type): in vivo, rats of the Sprague-Dawley strain
One assay concerns RhoA. The assay is described as follows: RhoA expression in striatum and substantia nigra of dyskinetic animals (Western blot, real-time PCR; Example 1). (Immunoblotting shows a protein as a band on a membrane.)
A further assay concerns ROCK. The assay is described as follows: ROCK expression and activity in striatum and substantia nigra of dyskinetic animals (Western blot, real-time PCR; Example 1).
Assay [1] has as its system rats injected with 6-OHDA, dyskinesias induced by L-DOPA. In words: Abnormal involuntary movements (AIMs) when fasudil is co-administered from before and during chronic L-DOPA treatment (Example 2).
Assay [2] deals with rats with unilateral lesion with 6-OHDA. In words: Rotational behavior induced by L-DOPA (Example 3). The note with it: different doses of fasudil (10, 30, 40 mg/kg).
The subject of assay [3] is rats with unilateral lesion with 6-OHDA, established dyskinesias induced by L-DOPA. In words: AIMs in animals with already established dyskinesias (L-DOPA 3 weeks, then L-DOPA and fasudil; Example 4).
Setting [4] is: L-DOPA 6 mg/kg and 12 mg/kg, normalized to 6-OHDA animals treated with saline, p<0.05.
[5] abbreviates: daily L-DOPA 6 or 12 mg/kg, 3-4 weeks, increase greater with the higher dose.
[6] abbreviates: fasudil 10 mg/kg/day i.p., L-DOPA 6 mg/kg, 3 weeks, relative to L-DOPA only.
[7] abbreviates: fasudil 30 mg/kg i.p., chronic L-DOPA.

Entries after “also recorded” stand apart in the source; their conditions may differ.

In the case of `N[C@@H](Cc1ccc(O)c(O)c1)C(=O)O` [L-DOPA], in the assay with RhoA (setting [4]), the “RhoA protein expression in the substantia nigra” value is recorded as “significant increase”. Besides, in the assay on RhoA (L-DOPA 6 and 12 mg/kg), the “RhoA protein expression in the striatum” value is reported as “only significant with the high dose”. Further, the “levels of the RhoA protein in dyskinetic animals” value with RhoA (setting [5]) was “significant increase”. Further, the “ROCK activity in the substantia nigra” value in the assay on ROCK (L-DOPA 6 mg/kg and 12 mg/kg, normalized to 6-OHDA animals treated with saline) is given as “significant increase”. The “ROCK protein expression in the substantia nigra” value in the assay on ROCK (setting [4]) is “significant increase”. Further, in the assay on ROCK (L-DOPA 6 and 12 mg/kg), the “ROCK protein expression in the striatum” value is “only significant with the high dose”. Further, in the assay with ROCK (setting [5]), the “levels of the ROCK protein in dyskinetic animals” value is recorded as “significant increase”.

Consider `O=S(=O)(c1cccc2cnccc12)N1CCCNCC1` [fasudil], for which the “abnormal involuntary movements (AIMs), total score and separate components (extremity, axial, orolingual)” value in assay [1] (FIG. 2, fasudil 10 mg/kg and 30-40 mg, chronic L-DOPA 23 and 32 days, p<0.05) was “statistically significant reduction”. Moreover, the “reduction in dyskinesia in conditions of severe dyskinesia” value in assay [1] (L-DOPA dose increased to 24 mg/kg at the end of the treatment, fasudil dose not stated) is “approximately 50%”. In addition, the “axial reduction in dyskinesias” value in assay [1] (setting [6]) is listed as around 35%; in assay [1] (setting [7]), 60%. Further, the “orolingual reduction in dyskinesias” value is recorded as around 30% in assay [1] (setting [6]) and 70% in assay [1] (setting [7]). Further, the “reduction in dyskinesias in the extremities” value in assay [1] (fasudil 10 mg/kg/day i.p., from 5 days before and 30 min before each L-DOPA 6 mg/kg, 3 weeks, relative to L-DOPA only) is on record as around 25%. Further, the “extremity reduction in dyskinesias” value in assay [1] (setting [7]) is recorded as 60%. Also, in assay [1] (fasudil 40 mg/kg i.p., chronic L-DOPA), the reduction in dyskinesia was 70%. The “rotations induced by L-DOPA (rotational behavior)” value in assay [2] is listed as “unaffected; also recorded: no differences were observed”. Moreover, the “effect on established dyskinetic movements” value is recorded as “significant reduction” in assay [3] (FIG. 4B, fasudil 30 and 40 mg/kg, even with L-DOPA 24 mg/kg, p<0.05); “did not have any effect; also recorded: no improvement” in assay [3] (fasudil 10 mg/kg/day, up to 7 days of treatment, after 3 weeks of L-DOPA). Besides, the “reduction in established dyskinesias, severe dyskinesia” value in assay [3] (L-DOPA increased to 24 mg/kg, maintained up to the end of the treatment) is “approximately 50%”. Besides, the “day of treatment from which the reduction in established dyskinesias was seen” value in assay [3] (fasudil 40 mg/kg/day) is reported as “third”. Also, the “reduction in established dyskinesias” value in assay [3] (fasudil 40 mg/kg/day, after 3 weeks of L-DOPA) is listed as “about 45%”. In addition, in assay [3] (fasudil 40 mg/kg, animals treated with L-DOPA for 3-4 weeks, summary statement), the “dyskinesias reduced to (already dyskinetic animals)” value is on record as around 50%.

The values are drawn from patent US12465613B2, “Pharmaceutical composition for use in the prophylactic and/or therapeutic treatment of L-DOPA-induced dyskinesia” (UNIVERSIDADE DE SANTIAGO DE COMPOSTELA, priority 2019, dated 2025).
